# Laboratory results: the supplement of paper PMC10307832
# How the values were obtained:
# [1] = compound: CCn1c(-c2nonc2N)nc2c(C#CC(C)(C)O)ncc(OC[C@H]3CCCNC3)c21 + COc1cc2c(Oc3ccc(NC(=O)C4(C(=O)Nc5ccc(F)cc5)CC4)cc3F)ccnc2cc1OCCCN1CCOCC1 [Foretinib] (partner 0.25 µM); assay: relative viability (nuclei count vs DMSO), 5 days (fraction); higher = more cells survive
# In short: (§1)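 Each reported value is a median over duplicate plates. It expresses relative viability: treated-well nuclei count divided by vehicle-well nuclei count. Lung cancer cell lines in 1536-well plates were dosed by pin tool a day after seeding, alone with one drug or with a fixed anchor-drug dose plus five library-drug doses (not always all listed) in √10 steps, and nuclei were counted after 5 days.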
# BAM7 + Navitoclax = compound: CCOC1=CC=CC=C1N=NC2=C(NN(C2=O)C3=NC(=CS3)C4=CC=CC=C4)C [BAM7] + CC1(C)CCC(c2ccc(Cl)cc2)=C(CN2CCN(c3ccc(C(=O)NS(=O)(=O)c4ccc(N[C@H](CCN5CCOCC5)CSc5ccccc5)c(S(=O)(=O)C(F)(F)F)c4)cc3)CC2)C1 [Navitoclax] (partner 0.5 µM); assay: as above
# In short: as §1
Cell Line,relative viability ([1]; first compound 0.01 µM),relative viability ([1]; first compound 0.03162 µM),relative viability ([1]; first compound 0.1 µM),relative viability ([1]; first compound 0.3162 µM),relative viability ([1]; first compound 1 µM),relative viability (BAM7 + Navitoclax; first compound 0.5 µM),relative viability (BAM7 + Navitoclax; first compound 5 µM),relative viability (BAM7 + Navitoclax; first compound 15.81 µM),relative viability (BAM7 + Navitoclax; first compound 50 µM)
NCI-H2342,1.1,1.19,1.04,1.07,1.09,–,–,–,–
SK-MES-1,0.908,0.876,1.02,0.819,0.828,1.37,1.36,1.23,1.23
HCC-366,0.931,0.99,0.975,0.907,0.965,1.11,0.981,0.964,0.957
201T,1.14,–,1.14,1.09,0.995,1.18,1.27,1.12,1.03
HCC-827,1.02,1.09,1.01,1.06,1.02,1.06,1.04,0.914,0.939
NCI-H647,1.26,1.1,1.14,1.16,1.22,1.11,1.16,0.899,1.14
NCI-H2023,0.775,0.887,0.801,0.781,0.755,1.04,0.888,0.886,0.982
NCI-H520,0.743,0.902,0.704,0.524,0.392,1.09,1.2,1.11,1.18
RERF-LC-KJ,0.858,0.821,0.921,0.767,0.973,0.908,0.805,0.907,0.847
A-427,0.978,1.23,1.1,0.981,0.991,0.991,0.921,0.974,0.971
NCI-H441,1.08,0.967,0.836,1.16,0.875,0.688,0.772,0.635,0.956
NCI-H1703,0.333,0.313,0.347,0.248,0.356,1.35,1.13,0.941,0.872
NCI-H1792,–,–,–,–,–,0.621,0.691,0.783,0.61
Calu-6,0.85,0.86,0.866,0.824,0.942,0.911,0.919,0.906,0.824
SK-LU-1,0.754,0.896,0.737,0.816,0.749,0.487,1.01,0.8,0.827
PC-3 [JPC-3],0.982,1.04,1.12,0.902,1.08,0.688,0.815,0.755,0.626
EMC-BAC-2,1.06,1.02,0.952,0.973,1.01,1.2,1.23,1.08,1.17
LK-2,0.994,1.15,–,–,1.09,0.896,0.893,0.886,0.85
NCI-H2126,1.1,1.16,1.25,1.11,1.2,0.841,0.857,0.86,0.849
NCI-H3122,0.923,0.941,0.962,1,0.883,1.07,0.984,1.06,1.07
NCI-H1975,0.983,1.04,0.937,0.95,0.885,0.9,1.1,–,0.862
NCI-H1944,0.755,0.888,0.821,0.851,0.876,1.07,1.14,0.875,0.882
LU99A,0.797,0.797,0.814,0.776,0.899,0.787,0.849,0.72,0.821
SW 1573,0.89,0.799,0.812,0.728,0.763,0.89,1.02,1.24,1.06
NCI-H2347,0.836,0.841,–,0.798,0.676,0.765,0.918,0.806,0.861
NCI-H2009,1.22,1.21,1.31,1.22,1.22,1.25,1.17,1.15,1.17

Cell Line,relative viability ([1]; first compound 0.01 µM),relative viability ([1]; first compound 0.03162 µM),relative viability ([1]; first compound 0.1 µM),relative viability ([1]; first compound 0.3162 µM),relative viability ([1]; first compound 1 µM),relative viability (BAM7 + Navitoclax; first compound 0.5 µM),relative viability (BAM7 + Navitoclax; first compound 5 µM),relative viability (BAM7 + Navitoclax; first compound 15.81 µM),relative viability (BAM7 + Navitoclax; first compound 50 µM)
HCC-15,0.995,1.04,1.05,0.903,0.92,0.751,0.768,0.683,0.707
HCC-44,–,–,–,–,–,1.02,1.02,0.959,1.01
COR-L23,0.835,1.08,0.903,1.02,1,1.03,1.15,0.986,0.955
HCC-78,0.515,0.523,0.539,0.532,0.527,0.901,0.69,0.658,0.796
NCI-H1299,1.09,1.08,1.06,0.717,1.16,1.05,1.08,1.07,1.06
NCI-H727,0.833,1.22,0.693,0.877,1.08,0.419,0.458,0.471,0.441
NCI-H2087,0.927,1.06,1.15,0.981,1.03,0.92,1.13,0.942,1.02
BEN,0.615,0.467,0.7,0.686,0.683,0.0506,0.068,0.0675,0.068
LCLC-103H,0.792,0.981,0.749,0.736,0.847,–,–,–,–
EKVX,0.85,0.809,0.723,0.797,0.75,1.13,0.982,0.71,1.01
LXF-289,0.983,1.05,0.979,0.952,0.955,0.96,1.04,0.93,0.907
ABC-1,1.04,1.28,1.01,0.813,1.08,–,–,–,–
NCI-H650,1.01,0.979,0.993,1,1.13,–,–,–,–
NCI-H1650,1.07,1.01,1.3,0.933,1.02,1.46,1.26,1.15,1.15
NCI-H2085,0.857,0.901,0.985,0.994,0.881,1.13,1.24,1.02,1.21
NCI-H1793,0.733,0.614,0.632,0.55,0.554,0.401,0.565,0.437,0.411
LC-2-ad,0.94,0.906,0.923,0.909,1.01,0.548,0.532,0.422,0.464
COR-L 105,1.01,1,1.04,1.03,1.16,0.825,0.664,0.784,0.826
NCI-H1355,0.954,1.05,0.937,0.906,0.81,0.856,0.94,0.773,0.957
H3255,0.833,0.826,0.891,0.875,0.777,0.473,0.51,0.525,0.577
NCI-H1993,0.693,0.835,0.785,0.733,0.714,0.819,0.899,0.739,0.813
NCI-H1734,0.765,0.841,0.801,0.748,0.799,0.877,0.948,0.861,0.771
HOP-62,1.08,1.13,1.08,0.985,1.16,1.03,1.23,1.04,1.06
LOU-NH91,0.929,0.962,0.964,0.861,0.907,0.708,0.75,0.69,0.655
ChaGo-K-1,0.802,0.849,0.852,0.911,0.896,0.882,1.18,1.11,1.08
NCI-H2228,0.762,0.985,0.767,0.555,0.872,0.985,1.4,0.818,1.27

Cell Line,relative viability ([1]; first compound 0.01 µM),relative viability ([1]; first compound 0.03162 µM),relative viability ([1]; first compound 0.1 µM),relative viability ([1]; first compound 0.3162 µM),relative viability ([1]; first compound 1 µM),relative viability (BAM7 + Navitoclax; first compound 0.5 µM),relative viability (BAM7 + Navitoclax; first compound 5 µM),relative viability (BAM7 + Navitoclax; first compound 15.81 µM),relative viability (BAM7 + Navitoclax; first compound 50 µM)
PC-14,0.933,1.02,1.02,0.894,1,1.05,1.09,1,0.938
NCI-H1437,1.18,1.27,1.28,1.27,1.36,1.18,1.07,0.964,1.03
NCI-H460,0.949,1.11,0.979,0.978,1.11,1.36,1.36,1.03,1.08
NCI-H1666,0.946,0.957,0.982,1.02,1.02,0.938,1.11,0.912,0.858
NCI-H1651,0.865,0.807,0.743,0.521,0.779,1.01,1.01,0.943,1.09
NCI-H1755,0.993,0.933,0.899,0.841,0.95,1.04,1.04,0.886,1.01
NCI-H661,1.01,1.06,1.06,0.935,1.06,–,–,–,–
HARA,0.848,1.01,0.864,0.833,0.876,1.19,1.19,1.08,1.16
NCI-H596,0.895,1,0.744,0.84,0.639,0.82,0.937,0.92,1.06
NCI-H1563,0.989,0.884,0.886,0.892,0.881,–,–,–,–
NCI-H23,0.971,1.15,1.06,0.918,0.916,0.978,0.846,0.921,0.934
A549,0.92,1.08,0.886,0.843,0.845,1.34,1.27,1.16,1.27
LCLC-97TM1,1.03,0.91,1.01,0.877,0.874,0.569,0.401,0.419,0.61
EPLC-272H,0.657,0.711,0.675,0.632,0.738,1.32,1.21,1.15,1.17
NCI-H1915,1.11,1.1,1.08,1.01,1,0.756,0.776,0.803,0.807
NCI-H2405,1.06,1.05,0.948,1.03,1.05,0.946,1.11,0.747,1
NCI-H322M,0.823,0.881,0.879,0.816,0.911,1.3,1.22,1.18,1.06
NCI-H2170,0.987,1.01,0.972,0.996,1.07,0.559,0.581,0.479,0.598
NCI-H1623,0.855,0.849,0.793,0.882,0.676,–,–,–,–
SW 900,0.92,0.887,0.875,0.798,0.768,–,–,–,–
NCI-H1395,0.945,0.922,0.945,0.871,0.818,1.15,1.14,1.1,1.13
IA-LM,0.955,1.02,1.09,0.946,0.923,0.689,0.556,0.556,0.658
NCI-H358,0.646,0.977,0.657,0.73,0.663,–,–,–,–
NCI-H838,0.969,1.08,0.988,1.02,1.07,1.2,1.19,1.14,1.12
